Our source for the IC50 values is patent US10870634B2, “Histone demethylase inhibitors” (CELGENE QUANTICEL RESEARCH, INC., priority 2016, dated 2020).

The structures appear in SMILES notation.

What is called IC50 is the midpoint of a concentration-inhibition curve.

Assay [1] addresses T1, JMJD2C (Homo sapiens, UniProt Q9H3R0).
T1 construct: purchased BPS Bioscience 50105
T1 sequence (Q9H3R0 2-372): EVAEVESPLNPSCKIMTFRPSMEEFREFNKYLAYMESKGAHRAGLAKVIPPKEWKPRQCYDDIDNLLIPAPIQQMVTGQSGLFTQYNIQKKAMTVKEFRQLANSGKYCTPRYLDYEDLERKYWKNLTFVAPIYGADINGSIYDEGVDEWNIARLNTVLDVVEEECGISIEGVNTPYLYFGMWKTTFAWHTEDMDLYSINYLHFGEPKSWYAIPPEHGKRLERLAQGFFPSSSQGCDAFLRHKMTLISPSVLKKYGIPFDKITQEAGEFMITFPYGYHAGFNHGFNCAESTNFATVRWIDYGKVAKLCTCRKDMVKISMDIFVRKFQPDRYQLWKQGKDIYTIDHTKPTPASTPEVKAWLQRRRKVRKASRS
Briefly: JMJD2C in vitro enzyme inhibition assay (TR-FRET). Type of assay: biochemical. As to conditions: 0.3 nM JMJD2C, 300 nM H3K9me3-biotin peptide, 2 μM alpha-ketoglutaric acid. An excerpt:
(§1) This assay determines the ability of a test compound to inhibit Jarid1B, JMJD2C and JMJD3 demethylase activity. Baculovirus-expressed Jarid1B (GenBank Accession # NM-006618, AA 2-751) was purchased from BPS Bioscience (Cat #50121) or custom made by MolecularThroughput. Baculovirus-expressed JMJD2C (GenBank Accession # BC143571, AA 2-372) was purchased from BPS Bioscience (Cat #50105). Baculovirus-expressed JMJD3 (GenBank Accession # NM_001080424, AA1043-end) was purchased from BPS Bioscience (Cat #50115).
The ability of test compounds to inhibit the activity of JMJD2C was determined in 384-well plate format under the following reaction conditions: 0.3 nM JMJD2C, 300 nM H3K9me3-biotin labeled peptide (Anaspec cat #464360), 2 μM alpha-ketoglutaric acid in assay buffer of 50 mM HEPES, pH 7.3, 0.005% Brij35, 0.5 mM TCEP, 0.2 mg/ml BSA, 50 μM sodium L-ascorbate, and 2 μM ammonium ironll sulfate. Reaction product was determined quantitatively by TR-FRET after the addition of detection reagent Phycolink Streptavidin-allophycocyanin (Prozyme) and Europium-anti-di-methylated histone H3 lysine 9 (H3K9me2) antibody (PerkinElmer) in the presence of 5 mM EDTA in LANCE detection buffer (PerkinElmer) at a final concentration of 50 nM and 1 nM, respectively.
The assay reaction was initiated by the following: 2 μl of the mixture of 900 nM H3K9me3-biotin labeled peptide and 6 μM alpha-ketoglutaric acid with 2 μl of 11-point serial diluted inhibitor in 3% DMSO were added to each well of the plate, followed by the addition of 2 μl of 0.9 nM JMJD2C to initiate the reaction. […] Plates were read by EnVisionMultilabel Reader in TR-FRET mode (excitation at 320 nm, emission at 615 nm and 665 nm) after 1 hr incubation at RT. A ratio was calculated (665/615) for each well and fitted to determine inhibition constant (IC50).
(§2) The ability to inhibit demethylase activity was quantified and the respective IC50 value was determined for substituted triazolylpyridine derivative compounds. […]
For orientation: In TR-FRET formats the signal depends on donor and acceptor labels being close together.

Assay [2] addresses T2, JMJD3 (Homo sapiens, UniProt O15054).
T2 construct: purchased BPS Bioscience 50115
Briefly: JMJD3 in vitro enzyme inhibition assay (AlphaScreen). The format is biochemical. Conditions: 1 nM JMJD3, 250 nM H3K27me3-biotin peptide, 1 μM alpha-ketoglutaric acid.
Source text: as §1
The ability of test compounds to inhibit the activity of JMJD3 was determined in 384-well plate format under the following reaction conditions: 1 nM JMJD3, 250 nM H3K27me3-biotin labeled peptide (Anaspec cat #64367), 1 μM alpha-ketoglutaric acid in assay buffer of 50 mM HEPES, pH 7.3, 0.005% Brij35, 0.5 mM TCEP, 0.2 mg/ml BSA, 50 μM sodium L-ascorbate, 5 μM ammonium ironII sulfate. Reaction product is determined quantitatively by AlphaScreen detection after the addition of detection reagents anti-H3K27me1 antibody, 5 μg/ml AlphaScreen® Streptavidin-coated Donor beads, and 5 μg/ml. AlphaScreen® Protein A Acceptor beads in 50 mM HEPES, pH 7.3, 10 mM NaCl, 0.005% Brij35, 10 mM :EDTA, 2 mg/ml BSA.
The assay reaction was initiated by the following: 3 μl of the mixture of 750 nM H3K27me3-biotin labeled peptide and 3 μM alpha-ketoglutaric acid with 3 μl of 11-point serial diluted inhibitor in 3% DMSO are added to each well of 384-well Proxiplate (Perkin Elmer), followed by the addition of 3 μl of 3 nM JMJD3 to initiate the reaction. The reaction mixture was incubated at room temp for 20 min, and terminated by the addition of 3 μl of appropriate dilution of anti-H3K27me1 antibody in 50 mM HEPES, pH 7.3, 10 mM NaCl, 0.005% Brij35, 10 mM EDTA, 2 mg/ml BSA. […] Plates were read by EnVision Multilabel Reader in AlphaScreen mode after minimum 2 hr incubation at room temp. […]
as §2

T2 sequence (O15054 1043-1682 isoform O15054-1): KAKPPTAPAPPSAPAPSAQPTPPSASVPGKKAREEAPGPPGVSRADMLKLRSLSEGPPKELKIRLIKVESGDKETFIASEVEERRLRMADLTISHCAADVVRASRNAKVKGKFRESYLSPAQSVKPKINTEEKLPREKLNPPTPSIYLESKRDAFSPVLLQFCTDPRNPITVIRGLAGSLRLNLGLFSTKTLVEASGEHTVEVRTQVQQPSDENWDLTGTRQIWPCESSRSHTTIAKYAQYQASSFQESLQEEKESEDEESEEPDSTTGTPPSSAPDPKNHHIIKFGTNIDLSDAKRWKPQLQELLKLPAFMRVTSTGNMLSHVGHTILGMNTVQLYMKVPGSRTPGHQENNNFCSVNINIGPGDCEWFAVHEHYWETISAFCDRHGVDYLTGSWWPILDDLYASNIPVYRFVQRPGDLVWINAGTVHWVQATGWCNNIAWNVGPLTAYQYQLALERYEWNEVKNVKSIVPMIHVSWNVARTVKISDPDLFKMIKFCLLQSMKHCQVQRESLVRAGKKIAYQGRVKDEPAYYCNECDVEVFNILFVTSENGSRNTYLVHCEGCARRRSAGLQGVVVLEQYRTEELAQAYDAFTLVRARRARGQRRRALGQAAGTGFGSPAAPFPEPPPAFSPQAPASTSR

In the case of `Fc1ccc(Cl)cc1Nc1cnccc1-c1nn[nH]c1C(F)(F)F` [Example 2, N-(5-chloro-2-fluorophenyl)-4-[5-(trifluoromethyl)-1H-1,2,3-triazol-4-yl]pyridin-3-amine], the IC50 in assay [1] and in assay [2] was more than 10 µM throughout.

With `FC(F)(F)c1[nH]nnc1-c1ccncc1NCC1CCCc2ccccc21` (stereo not drawn) [Example 3, N-[(1,2,3,4-tetrahydronaphthalen-1-yl)methyl]-4-[5-(trifluoromethyl)-1H-1,2,3-triazol-4-yl]pyridine-3-amine], the IC50 in assay [1] and in assay [2] was more than 10 µM in each case.

On to `Fc1cnccc1-c1nn[nH]c1C(F)(F)F` [Example 1, 3-fluoro-4-[5-(trifluoromethyl)-1H-1,2,3-triazol-4-yl]pyridine], for which the IC50 in assay [1] and in assay [2] was more than 10 µM throughout.
